Test results published in ChEMBL document CHEMBL5724914, “Linking interpersonal differences in gut microbiota composition and drug biotransformation activity” (2024).

Tests used:
[1] = human gut metagenome, 24 h, 2 µM
[2] = human gut metagenome, 24 h, 2 µM; remark: listed apart in the source
[3] = human gut metagenome, 24 h, 2 µM; remark: listed apart in the source
[4] = The drug is tested on Z-029 corresponding to rat gut metagenome with ENA study accession number: PRJEB37062 and ENA sample accession number: ERS12561828 for biotransformation under anaerobic condition. The drug concentrations were measured over 9 timepoints collected between 0 and 24 hours of incubation by liquid-chromatography-coupled mass spectrometry (LC–MS); settings: 2 µM
[5] = The drug is tested on WLS-027 corresponding to human gut metagenome with ENA study accession number: PRJEB37062 and ENA sample accession number: ERS12561744 for biotransformation under anaerobic condition. The drug concentrations were measured over 9 timepoints collected between 0 and 24 hours of incubation by liquid-chromatography-coupled mass spectrometry (LC–MS); settings: 2 µM
[6] = human gut metagenome, 24 h, 2 µM; remark: listed apart in the source
[7] = The drug is tested on Z-022 corresponding to mouse gut metagenome with ENA study accession number: PRJEB37062 and ENA sample accession number: ERS12561821 for biotransformation under anaerobic condition. The drug concentrations were measured over 9 timepoints collected between 0 and 24 hours of incubation by liquid-chromatography-coupled mass spectrometry (LC–MS); settings: 2 µM
[8] = The drug is tested on WLS-039 corresponding to human gut metagenome with ENA study accession number: PRJEB37062 and ENA sample accession number: ERS12561746 for biotransformation under anaerobic condition. The drug concentrations were measured over 9 timepoints collected between 0 and 24 hours of incubation by liquid-chromatography-coupled mass spectrometry (LC–MS); settings: 2 µM
[9] = human gut metagenome, 24 h, 2 µM; remark: listed apart in the source
[10] = The drug is tested on WLS-090 corresponding to human gut metagenome with ENA study accession number: PRJEB37062 and ENA sample accession number: ERS12561753 for biotransformation under anaerobic condition. The drug concentrations were measured over 9 timepoints collected between 0 and 24 hours of incubation by liquid-chromatography-coupled mass spectrometry (LC–MS); settings: 2 µM
[11] = human gut metagenome, 24 h, 2 µM; remark: listed apart in the source
[12] = The drug is tested on WLS-010 corresponding to human gut metagenome with ENA study accession number: PRJEB37062 and ENA sample accession number: ERS12561743 for biotransformation under anaerobic condition. The drug concentrations were measured over 9 timepoints collected between 0 and 24 hours of incubation by liquid-chromatography-coupled mass spectrometry (LC–MS); settings: 2 µM
[13] = human gut metagenome, 24 h, 2 µM; remark: listed apart in the source
[14] = The drug is tested on Z-018 corresponding to pig gut metagenome with ENA study accession number: PRJEB37062 and ENA sample accession number: ERS12561817 for biotransformation under anaerobic condition. The drug concentrations were measured over 9 timepoints collected between 0 and 24 hours of incubation by liquid-chromatography-coupled mass spectrometry (LC–MS); settings: 2 µM
[15] = The drug is tested on WLS-350 corresponding to human gut metagenome with ENA study accession number: PRJEB37062 and ENA sample accession number: ERS12561789 for biotransformation under anaerobic condition. The drug concentrations were measured over 9 timepoints collected between 0 and 24 hours of incubation by liquid-chromatography-coupled mass spectrometry (LC–MS); settings: 2 µM
[16] = The drug is tested on WLS-038 corresponding to human gut metagenome with ENA study accession number: PRJEB37062 and ENA sample accession number: ERS12561745 for biotransformation under anaerobic condition. The drug concentrations were measured over 9 timepoints collected between 0 and 24 hours of incubation by liquid-chromatography-coupled mass spectrometry (LC–MS); settings: 2 µM
[17] = human gut metagenome, 24 h, 2 µM; remark: listed apart in the source
[18] = The drug is tested on Z-014 corresponding to rat gut metagenome with ENA study accession number: PRJEB37062 and ENA sample accession number: ERS12561814 for biotransformation under anaerobic condition. The drug concentrations were measured over 9 timepoints collected between 0 and 24 hours of incubation by liquid-chromatography-coupled mass spectrometry (LC–MS); settings: 2 µM
[19] = human gut metagenome, 24 h, 2 µM; remark: listed apart in the source
[20] = The drug is tested on Z-010 corresponding to metagenome with ENA study accession number: PRJEB37062 and ENA sample accession number: ERS12561810 for biotransformation under anaerobic condition. The drug concentrations were measured over 9 timepoints collected between 0 and 24 hours of incubation by liquid-chromatography-coupled mass spectrometry (LC–MS); settings: 2 µM
Also: call rule not given here.

Compound	Bacterial Biotransformation [1]	Bacterial Biotransformation [2]	Bacterial Biotransformation [3]	Bacterial Biotransformation [4]	Bacterial Biotransformation [5]	Bacterial Biotransformation [6]	Bacterial Biotransformation [7]	Bacterial Biotransformation [8]	Bacterial Biotransformation [9]	Bacterial Biotransformation [10]	Bacterial Biotransformation [11]	Bacterial Biotransformation [12]	Bacterial Biotransformation [13]	Bacterial Biotransformation [14]	Bacterial Biotransformation [15]	Bacterial Biotransformation [16]	Bacterial Biotransformation [17]	Bacterial Biotransformation [18]	Bacterial Biotransformation [19]	Bacterial Biotransformation [20]
Cc1nc(-c2ccc(OCC(C)C)c(C#N)c2)sc1C(=O)O [FEBUXOSTAT]	Compound metabolized	Compound metabolized	Compound metabolized	Compound NOT metabolized	Compound metabolized	Compound metabolized	Compound metabolized	Compound metabolized	Compound metabolized	Compound metabolized	Compound NOT metabolized	Compound metabolized	Compound metabolized	Compound metabolized	Compound metabolized	Compound metabolized	Compound metabolized	Compound NOT metabolized	Compound metabolized	Compound metabolized
OCCN1CCN(CCCN2c3ccccc3Sc3ccc(C(F)(F)F)cc32)CC1 [FLUPHENAZINE]	Compound metabolized	Compound metabolized	Compound metabolized	Compound NOT metabolized	Compound metabolized	Compound metabolized	Compound metabolized	Compound metabolized	Compound metabolized	Compound metabolized	Compound metabolized	Compound metabolized	Compound metabolized	Compound NOT metabolized	Compound metabolized	Compound metabolized	Compound metabolized	Compound NOT metabolized	Compound metabolized	Compound metabolized
COc1ccc2c3c1O[C@H]1C[C@@H](O)C=C[C@@]31CCN(C)C2 [GALANTAMINE]	Compound NOT metabolized	Compound metabolized	Compound NOT metabolized	Compound NOT metabolized	Compound NOT metabolized	Compound metabolized	Compound NOT metabolized	Compound NOT metabolized	Compound NOT metabolized	Compound metabolized	Compound NOT metabolized	Compound metabolized	Compound metabolized	Compound NOT metabolized	Compound metabolized	Compound NOT metabolized	Compound NOT metabolized	Compound NOT metabolized	Compound metabolized	Compound metabolized

The next lines start with the values.

Bacterial Biotransformation [1]	Bacterial Biotransformation [2]	Bacterial Biotransformation [3]	Bacterial Biotransformation [4]	Bacterial Biotransformation [5]	Bacterial Biotransformation [6]	Bacterial Biotransformation [7]	Bacterial Biotransformation [8]	Bacterial Biotransformation [9]	Bacterial Biotransformation [10]	Bacterial Biotransformation [11]	Bacterial Biotransformation [12]	Bacterial Biotransformation [13]	Bacterial Biotransformation [14]	Bacterial Biotransformation [15]	Bacterial Biotransformation [16]	Bacterial Biotransformation [17]	Bacterial Biotransformation [18]	Bacterial Biotransformation [19]	Bacterial Biotransformation [20]	Compound
Compound NOT metabolized	Compound NOT metabolized	Compound NOT metabolized	Compound NOT metabolized	Compound NOT metabolized	Compound NOT metabolized	Compound NOT metabolized	Compound NOT metabolized	Compound NOT metabolized	Compound NOT metabolized	Compound NOT metabolized	Compound NOT metabolized	Compound NOT metabolized	Compound NOT metabolized	Compound NOT metabolized	Compound NOT metabolized	Compound NOT metabolized	Compound NOT metabolized	Compound NOT metabolized	Compound NOT metabolized	CC(C)(C(=O)O)c1ccc(C(O)CCCN2CCC(C(O)(c3ccccc3)c3ccccc3)CC2)cc1 (stereo not given) [FEXOFENADINE]
Compound NOT metabolized	Compound metabolized	Compound metabolized	Compound NOT metabolized	Compound metabolized	Compound metabolized	Compound metabolized	Compound metabolized	Compound metabolized	Compound metabolized	Compound metabolized	Compound metabolized	Compound metabolized	Compound metabolized	Compound metabolized	Compound metabolized	Compound metabolized	Compound NOT metabolized	Compound metabolized	Compound metabolized	Cc1ccc(S(=O)(=O)NC(=O)NN2CC3CCCC3C2)cc1 (stereo not given) [GLICLAZIDE]
Compound metabolized	Compound metabolized	Compound metabolized	Compound NOT metabolized	Compound metabolized	Compound metabolized	Compound metabolized	Compound metabolized	Compound metabolized	Compound NOT metabolized	Compound metabolized	Compound metabolized	Compound metabolized	Compound metabolized	Compound NOT metabolized	Compound metabolized	Compound metabolized	Compound metabolized	Compound NOT metabolized	Compound metabolized	COC1=CC(=O)C[C@@H](C)[C@]12Oc1c(Cl)c(OC)cc(OC)c1C2=O [GRISEOFULVIN]
